Molecules are shown by their SMILES.

This series in a line: LD50 in mice, dosed intravenously. The following applies: mouse, in vivo, iv.

For the molecule `NC(=NCC(F)(F)F)Nc1ccnc(OCCCO)n1` [Example 1, 4-[2-(2,2,2-trifluoroethyl)guanidino]-2-(3-hydroxypropoxy)pyrimidine], the LD50 (commonly the dose at which mortality reaches 50%) is about 30 mg/kg.
